Laboratory results from EP2762573A1, “In vitro method for determining cholestatic properties of a compound” (priority 2013, dated 2014).
Values belong to the compound of their own block, whether it stands above or below them.

Columns and labels:
Conditions in all cases: male, C57BL/6, mouse
Bcl2l11 = experiment: Biomarkers validation by q-pcr in precision cut liver slices: Bcl2l11 expression
Experimental: (§1) 23-weeks old male C57BL/6 mice were obtained from Harlan (Horst, The Netherlands). Animals were kept for 1 week at a housing temperature of 22°C and at a relative humidity of 30-70%. The lighting cycle was 12-h light and 12-h dark. At the age of 24 weeks animals were sacrificed by an overdose of isoflurane. The treatment protocol was approved by the Ethical Committee for Animal Experiments at Wageningen University.
(§2) Immediately after the animals were killed the liver was perfused with PBS and placed in ice-cold Krebs-Henseleit buffer (KHB) (pH 7.4, supplemented with 11 mM glucose). Liver tissue was transported to the laboratory within approximately 30 min and cylindrical liver cores were produced using a surgical biopsy punch with diameter of 5 mm (KAI, SynErgo Europe, Romania). Liver cores were placed in a Krumdieck tissue slicer (Alabama Research and Development, Munford, AL) filled with ice-cold KHB aerated with carbogen and supplemented with 11 mM glucose. Precesion cut liver slices (PCLS) with a diameter of 5 mm, a thickness of 0.2 mm and a weight of approximately 10 mg were prepared. Immediately after preparation, slices were transferred into culture plates filled with pre-warmed (37 degrees C) Williams E medium (WEM). Three liver slices were pre-cultured in one well of the 6-well plate filled with 4 ml of WEM for one hour with continuous shaking (70 rpm). Incubations were performed in an oxygen controlled incubator (Galaxy 48 R New Brunswick, Nijmegen, the Netherlands) at 80% of oxygen; 5% CO2 and the remaining gas volume was filled up to […] with N2. After one hour of pre-incubation, media were removed and replaced with fresh media containing test compounds or appropriate solvents. After incubations, samples were snap-frozen in liquid nitrogen and stored in -80 °C for further analysis. Samples dedicated to histology were stored in 4 % formaldehyde at room temperature.
(§3) PCLS were incubated at the same conditions as described above. Slices were exposed for 24 and 48 hours to one concentration of the tested compounds or controls. Concentrations used in the exposure experiments were preselected in the dose selection experiments for each drug individually. […] For the necrotic compounds: 1000 uM acetaminophen, 5 µM paraquat and 1000 uM isoniazid. Liver slices obtained from five mice were used in five toxic compound or control exposure experiments performed at the same time. Dose selection experiments and exposure experiments were performed at different days. Therefore, ATP, LDH, and protein assays were performed again for the exposure experiments to confirm that the selected doses did also not affect slice viability in these experiments.
(§4) In further studies, expression of ten candidate biomarkers in PCLS was analyzed by q-pcr using the Biorad CFX96 TM Real-Time Detection System (Bio-Rad, Veenendaal, The Netherlands) with the following cycling conditions: 15 min 95°C followed by 40 cycles of 15s 95 °C and 1 min 60 °C. Reactions were performed in 10 µl and contained 20 ng cDNA, 1x TaqMan PCR Master Mix (Applied Biosystems, Foster City, CA), and depending on the analysed gene, 250 nM probe and 900 nM primer (for actin b) or 1xTaqMan gene expression assay (for the remaining genes) (Applied Biosystems, foster City, CA).

Parp16 = experiment: Biomarkers validation by q-pcr in precision cut liver slices: Parp16 expression
Experimental: as §1, §2, §3, §4

Mras = experiment: Biomarkers validation by q-pcr in precision cut liver slices: Mras expression
Experimental: as §1, §2, §3, §4

Myo1e = experiment: Biomarkers validation by q-pcr in precision cut liver slices: Myo1e expression
Experimental: as §1, §2, §3, §4

Nme6 = experiment: Biomarkers validation by q-pcr in precision cut liver slices: Nme6 expression
Experimental: as §1, §2, §3, §4

ABCG5 = experiment: Biomarkers validation by q-pcr in precision cut liver slices: ABCG5 expression
Experimental: as §1, §2, §3, §4

ABCG8 = experiment: Biomarkers validation by q-pcr in precision cut liver slices: ABCG8 expression
Experimental: as §1, §2, §3, §4

SERPINE1 = experiment: Biomarkers validation by q-pcr in precision cut liver slices: SERPINE1 expression
Experimental: as §1, §2, §3, §4

BAAT = experiment: Biomarkers validation by q-pcr in precision cut liver slices: BAAT expression
Experimental: as §1, §2, §3, §4

KLF15 = experiment: Biomarkers validation by q-pcr in precision cut liver slices: KLF15 expression
Experimental: as §1, §2, §3, §4

PCLS = experiment: Cytotoxicity analysis - dose selection experiments (LDH, ATP, protein assay)
Experimental: as §1, §2, §3

- *fold change 1, gene expression level Bcl2111 (Bcl2l11): 1,9
- *fold change 2, gene expression level Bcl2111 (Bcl2l11): 1,1
- *fold change 3, gene expression level Bcl2111 (Bcl2l11): 2,0
- *fold change 4, gene expression level Bcl2111 (Bcl2l11): 2,4
- *fold change 5, gene expression level Bcl2111 (Bcl2l11): 1,7
- *fold change 1, gene expression level Parp 16 (Parp16): 1,4
- *fold change 2, gene expression level Parp 16 (Parp16): -1,3
- *fold change 3, gene expression level Parp 16 (Parp16): 1,4
- *fold change 4, gene expression level Parp 16 (Parp16): 1,5
- *fold change 5, gene expression level Parp 16 (Parp16): 1,6
- *fold change 1, gene expression level Mras (Mras): 1,7
- *fold change 2, gene expression level Mras (Mras): -1,0
- *fold change 3, gene expression level Mras (Mras): 1,3
- *fold change 4, gene expression level Mras (Mras): 1,2
- *fold change 5, gene expression level Mras (Mras): 1,4
- *fold change 1, gene expression level Myo 1e (Myo1e): 1,1
- *fold change 2, gene expression level Myo 1e (Myo1e): -1,2
- *fold change 3, gene expression level Myo 1e (Myo1e): 1,4
- *fold change 4, gene expression level Myo 1e (Myo1e): 1,4
- *fold change 5, gene expression level Myo 1e (Myo1e): 1,4
- *fold change 1, gene expression level Nme6 (Nme6): -1,2
- *fold change 2, gene expression level Nme6 (Nme6): -1,2
- *fold change 3, gene expression level Nme6 (Nme6): -1,1
- *fold change 4, gene expression level Nme6 (Nme6): -1,3
- *fold change 5, gene expression level Nme6 (Nme6): 1,0
- *fold change 1, gene expression level ABCG5 (ABCG5): -2,1
- *fold change 2, gene expression level ABCG5 (ABCG5): -1,3
- *fold change 3, gene expression level ABCG5 (ABCG5): 1,4
- *fold change 4, gene expression level ABCG5 (ABCG5): -1,4
- *fold change 5, gene expression level ABCG5 (ABCG5): 1,1
- *fold change 1, gene expression level ABCG8 (ABCG8): -1,7
- *fold change 2, gene expression level ABCG8 (ABCG8): -1,2
- *fold change 3, gene expression level ABCG8 (ABCG8): 1,4
- *fold change 4, gene expression level ABCG8 (ABCG8): -1,1
- *fold change 5, gene expression level ABCG8 (ABCG8): 1,4
- *fold change 1, gene expression level SERPINE1 (SERPINE1): -1,6
- *fold change 2, gene expression level SERPINE1 (SERPINE1): -1,4
- *fold change 3, gene expression level SERPINE1 (SERPINE1): 1,2
- *fold change 4, gene expression level SERPINE1 (SERPINE1): -1,3
- *fold change 5, gene expression level SERPINE1 (SERPINE1): 1,5
- *fold change 1, gene expression level BAAT (BAAT): -5,0
- *fold change 2, gene expression level BAAT (BAAT): -2,0
- *fold change 3, gene expression level BAAT (BAAT): -1,4
- *fold change 4, gene expression level BAAT (BAAT): -2,8
- *fold change 5, gene expression level BAAT (BAAT): -1,5
- *fold change 1, gene expression level KLF15 (KLF15): -1,5
- *fold change 2, gene expression level KLF15 (KLF15): -1,2
- *fold change 3, gene expression level KLF15 (KLF15): -1,4
- *fold change 4, gene expression level KLF15 (KLF15): -1,1
- *fold change 5, gene expression level KLF15 (KLF15): 1,2
Compound: CC(=O)Nc1ccc(O)cc1 [APAP, acetaminophen]
- highest concentration that did not cause significant increase of toxicity (PCLS): 1000 µM

- *fold change 1, gene expression level Bcl2111 (Bcl2l11): 1,9
- *fold change 2, gene expression level Bcl2111 (Bcl2l11): 1,7
- *fold change 3, gene expression level Bcl2111 (Bcl2l11): 1,3
- *fold change 4, gene expression level Bcl2111 (Bcl2l11): -1,2
- *fold change 5, gene expression level Bcl2111 (Bcl2l11): -1,2
- *fold change 1, gene expression level Parp 16 (Parp16): -1,0
- *fold change 2, gene expression level Parp 16 (Parp16): -1,0
- *fold change 3, gene expression level Parp 16 (Parp16): 1,2
- *fold change 4, gene expression level Parp 16 (Parp16): -2,3
- *fold change 5, gene expression level Parp 16 (Parp16): -1,8
- *fold change 1, gene expression level Mras (Mras): 1,7
- *fold change 2, gene expression level Mras (Mras): -1,1
- *fold change 3, gene expression level Mras (Mras): 1,3
- *fold change 4, gene expression level Mras (Mras): -1,3
- *fold change 5, gene expression level Mras (Mras): -1,3
- *fold change 1, gene expression level Myo 1e (Myo1e): 1,5
- *fold change 2, gene expression level Myo 1e (Myo1e): 1,3
- *fold change 3, gene expression level Myo 1e (Myo1e): 1,3
- *fold change 4, gene expression level Myo 1e (Myo1e): -1,3
- *fold change 5, gene expression level Myo 1e (Myo1e): 1,1
- *fold change 1, gene expression level Nme6 (Nme6): 1,3
- *fold change 2, gene expression level Nme6 (Nme6): 1,2
- *fold change 3, gene expression level Nme6 (Nme6): 1,1
- *fold change 4, gene expression level Nme6 (Nme6): -1,3
- *fold change 5, gene expression level Nme6 (Nme6): -1,1
- *fold change 1, gene expression level ABCG5 (ABCG5): 2,0
- *fold change 2, gene expression level ABCG5 (ABCG5): 3,0
- *fold change 3, gene expression level ABCG5 (ABCG5): 1,1
- *fold change 4, gene expression level ABCG5 (ABCG5): 2,0
- *fold change 5, gene expression level ABCG5 (ABCG5): 2,0
- *fold change 1, gene expression level ABCG8 (ABCG8): 2,1
- *fold change 2, gene expression level ABCG8 (ABCG8): 2,8
- *fold change 3, gene expression level ABCG8 (ABCG8): 1,0
- *fold change 4, gene expression level ABCG8 (ABCG8): 2,3
- *fold change 5, gene expression level ABCG8 (ABCG8): 1,9
- *fold change 1, gene expression level SERPINE1 (SERPINE1): 5,4
- *fold change 2, gene expression level SERPINE1 (SERPINE1): 1,9
- *fold change 3, gene expression level SERPINE1 (SERPINE1): 1,4
- *fold change 4, gene expression level SERPINE1 (SERPINE1): -1,4
- *fold change 5, gene expression level SERPINE1 (SERPINE1): -2,9
- *fold change 1, gene expression level BAAT (BAAT): 1,8
- *fold change 2, gene expression level BAAT (BAAT): 1,7
- *fold change 3, gene expression level BAAT (BAAT): 1,1
- *fold change 4, gene expression level BAAT (BAAT): -1,3
- *fold change 5, gene expression level BAAT (BAAT): 1,3
- *fold change 1, gene expression level KLF15 (KLF15): 1,2
- *fold change 2, gene expression level KLF15 (KLF15): 2,4
- *fold change 3, gene expression level KLF15 (KLF15): 1,0
- *fold change 4, gene expression level KLF15 (KLF15): 1,1
- *fold change 5, gene expression level KLF15 (KLF15): 1,2
Compound: NNC(=O)c1ccncc1 [ISONZ, isoniazid]
- highest concentration that did not cause significant increase of toxicity (PCLS): 1000 µM
